Measured values reported in patent US7098204B2 (C.N.R.S., priority 1999, dated 2006).
Values after ≈ are worked out from the molar mass of the structure shown.

What was measured:
erk1 = molecular target: T1, erk1 (Homo sapiens, UniProt P27361); assay: erk1 kinase assay; format: biochemical; conditions: 15 μM ATP
T1 construct: His
Protocol: Blank values were subtracted and activities calculated as pmoles of phosphate incorporated for a 10 min. incubation (usually expressed in % of the maximal activity, i.e. without inhibitors). Controls were performed with appropriate dilutions of Me2SO. In some cases phosphorylation of the substrate was assessed by autoradiography after SDS-PAGE. […] ATP (3,000 Ci/mmol; 1 mCi/ml) in a final volume of 30 μl. After 10 min. incubation at 30° C., 25 μl aliquots of supernatant were spotted onto 2.5×3 cm pieces of Whatman P81 phosphocellulose paper, and, 20 sec. later, the filters were washed five times (for at least 5 min. each time) in a solution of 10 ml phosphoric acid/liter of water. […] ATP (3,000 Ci/mmol; 1 mCi/ml) in a final volume of 30 μl. […] Its activity was assayed in buffer C as described for CDK1/cyclin B. • CDK2/cyclin A, CDK2/cyclin E, CDK3/cyclin E, CDK4/cyclin D1, CDK6/cyclin D2, His-tagged erk1 and erk2, protein kinase C isoforms, the catalytic subunit of cAMP-dependent protein kinase, cGMP-dependent protein kinase, Myosin light chain kinase, casein kinases 1 & 2, ASK-γ (a plant homologue of GSK-3), insulin receptor tyrosine kinase domain (CIRK-41), c-raf, MAPKK, c-jun N terminal kinase (obtained from Promega), c-src kinase and v-abl kinase were assayed as described [15].

c-src tyrosine kinase = c-src tyrosine kinase (Homo sapiens, UniProt P12931); assay: c-src tyrosine kinase assay; format: biochemical; conditions: 15 μM ATP
Protocol: Kinases activities were assayed in Buffer A or C (unless otherwise stated), at 30° C., at a final ATP concentration of 15 μM. Blank values were subtracted and activities calculated as pmoles of phosphate incorporated for a 10 min. incubation (usually expressed in % of the maximal activity, i.e. without inhibitors). Controls were performed with appropriate dilutions of Me2SO. In some cases phosphorylation of the substrate was assessed by autoradiography after SDS-PAGE. IC50 values were estimated from the dose-response curves. • CDK1/cyclin B was extracted in homogenisation buffer from M phase starfish (Marthasterias glacialis) oocytes and purified by affinity chromatography on p9^CKShs1-Sepharose beads, from which it was eluted by free p9^CKShs1 as described. The kinase activity was assayed in buffer C, with 1 mg histone H1/ml, in the presence of 15 μM [γ-^32P] ATP (3,000 Ci/mmol; 1 mCi/ml) in a final volume of 30 μl. After 10 min. incubation at 30° C., 25 μl aliquots of supernatant were spotted onto 2.5×3 cm pieces of Whatman P81 phosphocellulose paper, and, 20 sec. later, the filters were washed five times (for at least 5 min. each time) in a solution of 10 ml phosphoric acid/liter of water. The wet filters were counted in the presence of 1 ml ACS (Amersham) scintillation fluid. • GSK-3β was either purified from rabbit muscle or expressed in and purified from insect Sf9 cells. […]

topoisomerase II α = topoisomerase II α (Homo sapiens, UniProt P11388); assay: topoisomerase II α assay; format: biochemical; conditions: −(x) = no effect at the highest dose tested (in parentheses)
Protocol: Enzyme activities were assayed as described in the Experimental Procedures section, in the presence of increasing HD concentrations. IC50's were calculated from the dose-response curves.−, no effect at the highest dose tested (in parentheses).

GSK-3β = GSK-3β (Mus musculus, UniProt Q9WV60); assay: MAP-1B phosphorylation by GSK-3 in cerebellar granule cells; format: cell-based, mice
Protocol: Cerebellar granule cells were isolated from newborn mice and purified according to the method of Hatten using Percoll gradients. Cells were plated onto dishes coated with poly-D-lysine (100 μg/ml) and laminin (50 μg/ml) and grown in serum-free medium for 1 day, the cultures were then treated with HD (1–100 μM) for 20 h. Cultures were fixed with 4% formaldehyde in PBS and stored in PBS at 4° C. Cells were permeabilised with 100% methanol and incubated with primary antibodies against GAP-43 and MAP-1B-P (SMI-31, Affiniti) overnight at 4° C. FITC and Texas Red conjugated secondary antibodies were used (Vector). For western blot analysis, cells were lysed in sample buffer and analysed by 8% SDS-PAGE. Proteins were transferred to nitrocellulose membranes and incubated with an antibody to MAP-1B-P (SMI-31) diluted in block solution (0.1% Tween-20, 3% dried skimmed milk in TBS) for 2 h at room temperature. HRP-conjugated secondary antibodies (Amersham) were used and proteins were visualised using the ECL system (Pierce). Blots were scanned using a flat bed scanner (UMAX Astra 1200S).

colon, KM20L2 = assay: Human cancer cell line KM20L2 proliferation; format: cell-based; conditions: KM-20L2
melanoma, SK-MEL-5 = assay: Human cancer cell line SK-MEL-5 proliferation; format: cell-based
HT29-18-C1 cells = assay: Trypan blue dye exclusion, HT29-18-C1; format: cell-based, human
Protocol: HT29-18-C1 cells were synchronised in G1 by serum deprivation. 5% FCS was added at time 0 and cells were simultaneously treated (o) or not (o) exposed to 10 μM HD. During 24 h and thereafter cultured in 5% FCS-containing medium. Cell number was determined every 12 h for a 72 h period using a hemocytometer. The kinetics of growth inhibition are given on FIG. 9A. […] Serum-treated cells (time 0) were exposed to various HD concentrations and counted after 24 h. The results are given on FIG. 9B. The number of non-serum stimulated cells ( ? ) is indicated for comparison. […] Trypan blue dye exclusion indicated little toxicity associated with 10 and 80 μM HD at 24 h (>95% and 90% viability, respectively). This antiproliferative effect of HD appears to be reversible. In fact, cells slowly began to proliferate again after 72 h culture.

GSK-3β, sequence (Q9WV60 whole entry): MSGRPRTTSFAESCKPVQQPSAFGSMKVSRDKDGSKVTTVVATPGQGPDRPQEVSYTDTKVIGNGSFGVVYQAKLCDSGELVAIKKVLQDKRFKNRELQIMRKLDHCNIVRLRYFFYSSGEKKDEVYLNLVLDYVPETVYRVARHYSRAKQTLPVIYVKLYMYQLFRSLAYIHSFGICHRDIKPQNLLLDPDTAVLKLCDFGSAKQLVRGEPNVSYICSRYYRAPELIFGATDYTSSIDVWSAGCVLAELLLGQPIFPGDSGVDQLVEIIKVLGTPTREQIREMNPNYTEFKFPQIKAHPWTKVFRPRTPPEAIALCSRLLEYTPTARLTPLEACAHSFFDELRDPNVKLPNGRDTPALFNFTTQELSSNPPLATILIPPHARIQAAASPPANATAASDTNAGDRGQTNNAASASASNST
T1 sequence (P27361 whole entry, species assumed): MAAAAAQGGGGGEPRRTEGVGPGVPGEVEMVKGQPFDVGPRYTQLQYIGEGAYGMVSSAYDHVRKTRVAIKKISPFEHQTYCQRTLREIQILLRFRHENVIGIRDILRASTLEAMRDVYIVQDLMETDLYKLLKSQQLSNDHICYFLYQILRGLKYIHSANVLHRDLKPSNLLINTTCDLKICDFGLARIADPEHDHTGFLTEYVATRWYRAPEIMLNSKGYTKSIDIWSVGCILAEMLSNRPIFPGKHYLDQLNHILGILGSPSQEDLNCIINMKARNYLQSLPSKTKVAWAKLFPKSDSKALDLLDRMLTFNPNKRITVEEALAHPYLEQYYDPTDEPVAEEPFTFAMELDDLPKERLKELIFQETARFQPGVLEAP
c-src tyrosine kinase, sequence (P12931 whole entry): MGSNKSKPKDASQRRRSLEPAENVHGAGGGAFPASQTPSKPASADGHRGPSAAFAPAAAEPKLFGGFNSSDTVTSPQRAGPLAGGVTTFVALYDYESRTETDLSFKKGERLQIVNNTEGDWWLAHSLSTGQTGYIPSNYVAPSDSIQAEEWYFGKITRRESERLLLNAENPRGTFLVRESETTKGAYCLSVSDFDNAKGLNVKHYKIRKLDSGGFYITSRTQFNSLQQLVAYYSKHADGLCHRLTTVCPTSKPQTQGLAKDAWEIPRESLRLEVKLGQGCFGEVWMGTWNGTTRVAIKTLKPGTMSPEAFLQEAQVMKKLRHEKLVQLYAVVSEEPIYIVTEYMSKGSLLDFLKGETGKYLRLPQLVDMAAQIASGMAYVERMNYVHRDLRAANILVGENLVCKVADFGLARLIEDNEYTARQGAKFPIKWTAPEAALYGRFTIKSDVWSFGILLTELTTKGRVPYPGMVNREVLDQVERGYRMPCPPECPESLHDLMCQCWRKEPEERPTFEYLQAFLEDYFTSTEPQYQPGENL
topoisomerase II α, sequence (P11388 whole entry): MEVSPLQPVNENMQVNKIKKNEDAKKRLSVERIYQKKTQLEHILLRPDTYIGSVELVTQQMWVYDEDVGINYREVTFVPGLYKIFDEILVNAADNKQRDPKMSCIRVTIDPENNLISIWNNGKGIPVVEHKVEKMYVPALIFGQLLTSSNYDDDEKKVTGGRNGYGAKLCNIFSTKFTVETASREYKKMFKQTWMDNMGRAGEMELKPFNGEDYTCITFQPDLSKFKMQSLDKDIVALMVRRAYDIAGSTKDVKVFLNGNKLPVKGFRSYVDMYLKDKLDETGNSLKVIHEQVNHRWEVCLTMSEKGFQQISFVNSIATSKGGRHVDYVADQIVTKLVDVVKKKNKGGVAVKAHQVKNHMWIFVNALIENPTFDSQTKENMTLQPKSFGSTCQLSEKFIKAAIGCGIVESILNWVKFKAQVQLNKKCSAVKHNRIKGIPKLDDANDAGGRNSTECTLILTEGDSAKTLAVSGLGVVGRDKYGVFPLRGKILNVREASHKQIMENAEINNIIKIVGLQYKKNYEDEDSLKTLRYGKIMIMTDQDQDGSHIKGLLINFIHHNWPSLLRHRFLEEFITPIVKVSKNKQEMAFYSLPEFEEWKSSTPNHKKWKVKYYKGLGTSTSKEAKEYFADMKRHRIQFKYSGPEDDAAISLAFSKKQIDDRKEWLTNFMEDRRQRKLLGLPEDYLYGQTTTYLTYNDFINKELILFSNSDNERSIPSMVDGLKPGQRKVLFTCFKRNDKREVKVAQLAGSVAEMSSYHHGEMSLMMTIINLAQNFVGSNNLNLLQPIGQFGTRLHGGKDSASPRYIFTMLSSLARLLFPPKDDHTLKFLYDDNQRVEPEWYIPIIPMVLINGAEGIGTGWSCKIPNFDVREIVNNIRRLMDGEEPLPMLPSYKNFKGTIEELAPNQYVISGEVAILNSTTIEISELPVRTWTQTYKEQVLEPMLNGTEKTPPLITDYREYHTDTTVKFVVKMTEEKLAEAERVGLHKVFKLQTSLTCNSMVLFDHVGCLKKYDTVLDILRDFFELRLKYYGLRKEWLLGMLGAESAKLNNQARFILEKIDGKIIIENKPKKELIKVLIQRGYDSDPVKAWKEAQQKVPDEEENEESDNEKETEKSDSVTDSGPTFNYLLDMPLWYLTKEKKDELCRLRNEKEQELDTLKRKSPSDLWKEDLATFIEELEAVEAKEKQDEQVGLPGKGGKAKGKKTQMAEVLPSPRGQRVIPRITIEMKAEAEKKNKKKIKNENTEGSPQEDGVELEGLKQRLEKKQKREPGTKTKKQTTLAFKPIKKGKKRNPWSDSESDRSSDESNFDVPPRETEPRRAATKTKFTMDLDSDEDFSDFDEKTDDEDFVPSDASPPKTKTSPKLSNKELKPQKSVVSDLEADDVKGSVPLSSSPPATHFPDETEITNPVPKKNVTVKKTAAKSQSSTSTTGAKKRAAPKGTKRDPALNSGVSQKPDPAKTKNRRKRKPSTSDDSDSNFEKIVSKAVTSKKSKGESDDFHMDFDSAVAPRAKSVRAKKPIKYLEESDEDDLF

NC1=NC(=O)C(=C2CCNC(=O)c3[nH]c(Br)cc32)N1 [hymenialdisine, 4-(2-amino-4-oxo-2-imidazolin-5-ylidene)-2-bromo-4,5,6,7-tetrahydropyrrolo (2,3-c) azepine-8-one]
IC50 (erk1): 0.47 µM | IC50 (c-src tyrosine kinase): 7 µM | IC50 (topoisomerase II α): > 10 µM | cell morphology and distribution of MAP-1B-P (GSK-3β; 1 μM, 10 μM, 25 μM, 20 h): no noticeable effect | MAP-1B-P in axonal processes (GSK-3β; 50 μM, 20 h): loss of MAP-1B-P from most of the axonal processes | MAP-1B-P in axonal processes (GSK-3β; 100 μM, 20 h): loss of MAP-1B-P from processes | MAP-1B-P by Western blotting (GSK-3β; increasing doses 1–100 μM): loss of MAP-1B-P in a dose-dependent manner | IC50 (colon, KM20L2): 8.5 µg/mL (≈ 26.2 µM) | IC50 (melanoma, SK-MEL-5): 5.7 µg/mL (≈ 17.6 µM) | viability (trypan blue) (HT29-18-C1 cells; 10 μM HD at 24 h): > 95% | viability (trypan blue) (HT29-18-C1 cells; 80 μM HD at 24 h): 90%
